Measured values from patent publication US20050113405A1, “Methods of treating rheumatoid arthritis using NF-kB inhibitors” (Wyeth, priority 2003, published 2005).

Experiments:
[1] = system: Lewis rats with adjuvant-induced arthritis; experiment: Adjuvant-induced arthritis in Lewis rats, daily joint scores (hindpaw erythema and swelling); type: in vivo, rat
[2] = system: Lewis rats with adjuvant-induced arthritis; experiment: Adjuvant-induced arthritis in Lewis rats, histological scoring of tarsal joints (Mankin and synovitis scores); type: in vivo, rat; conditions: for Tidemark Integrity (0-1) / Cartilage Cells (0-3) / Cartilage Structure (0-6) / Fibroplasia (0-3) / Inflammatory Cells (0-3) / Pannus (0-2) / Saffranin-O/Fast Green Staining (0-4) / Synovial Structure (0-3) / Total Mankin Score (0-14) / Total Synovitis Score (0-10): tarsal joints; for Cartilage Cells (0-3) / Cartilage Structure (0-6) / Fibroplasia (0-3) / Inflammatory Cells (0-3) / Pannus (0-2) / Saffranin-O/Fast Green Staining (0-4) / Synovial Structure (0-3) / Total Mankin Score (0-14) / Total Synovitis Score (0-10): mean ± SD
Experimental: Statistical analysis was performed using Abacus Concepts Super ANOVA. (Abacus Concepts, Inc., Berkeley, Calif.). All of the parameters of interest were subjected to Analysis of Variance with Duncan's new multiple range post hoc testing between groups. Data are expressed throughout as mean±standard deviation (SD), and differences were deemed significant if p<0.05.
At the end of the study the rats were euthanized with CO2, hindlimbs were removed at necropsy and fixed in 10% buffered formalin, and the tarsal joints were decalcified and embedded in paraffin. Histologic sections will be stained with Hematoxylin and Eosin or Saffranin O—Fast Green stain.
Slides will be coded so that the examiner will be blinded to the treatment groups. […] Articular cartilage and bone will be evaluated using Mankin's histological grading system (method described by Mankin H J, Dorfman, H:Lippieo L. L. Zarins. 1971. Biochemical and metabolic abnormalities in articular cartilage from osteoarthritic human hip. See J. Bone Joint Surg (AM) 53A:152-153) (Table 6).

BALB/c mice = experiment: Collagen induced arthritis model (anti-type II collagen mAbs plus LPS), hind paw volume; type: in vivo, mouse; conditions: 2.5 mg/kg orally once daily; over the course of the experiment
Experimental: Compounds are evaluated in BALB/c mice, 6-8 weeks of age, in which arthritis is induced by monoclonal antibodies raised against type II collagen, plus lipopolysaccharide (LPS). The animals were administered intravenously with a combination of 4 different mAbs totaling 4 mg/mouse on day 0, and followed by intravenous 25 μg of LPS 72 hours later (day 3). From day 3, one hour after LPS application, tested compounds are give orally once daily for 15 days. For each animal, increase in volume of both hind paws is measured using a plethysmometer with water cell (12 mm diameter) on days 0, 5, 7, 10, 14 and 17. Percent inhibition of increase in volume is calculated. Reduction of edema in the hind paws by 30% or more is considered significant.

[3] = 0.1 mg/kg orally for 2 weeks from day 8 after CFA
[4] = 0.3 mg/kg orally for 2 weeks from day 8 after CFA
[5] = 1 mg/kg orally for 2 weeks from day 8 after CFA

C[C@@H]1c2cc(F)ccc2-c2ccccc2N1S(=O)(=O)c1ccc(O)cc1 (stereo in doubt) [Example 3, 4-[(8-Fluoro-6-methylphenanthridin-5(6H)-yl)sulfonyl]phenol]
joint scores (paw swelling and redness, maximal score per day 12) ([1]; Day 8, 0.1 mg/kg orally each day from Day 8 after adjuvant): 11.3
joint scores (paw swelling and redness, maximal score per day 12) ([1]; Day 8, 0.3 mg/kg orally each day from Day 8 after adjuvant): 11.5
joint scores (paw swelling and redness, maximal score per day 12) ([1]; Day 8, 1 mg/kg orally each day from Day 8 after adjuvant): 11.3
joint scores (paw swelling and redness, maximal score per day 12) ([1]; Day 9, 0.1 mg/kg orally each day from Day 8 after adjuvant): 10.7
joint scores (paw swelling and redness, maximal score per day 12) ([1]; Day 9, 0.3 mg/kg orally each day from Day 8 after adjuvant): 9.8
joint scores (paw swelling and redness, maximal score per day 12) ([1]; Day 9, 1 mg/kg orally each day from Day 8 after adjuvant): 8.8
joint scores (paw swelling and redness, maximal score per day 12) ([1]; Day 10, 0.1 mg/kg orally each day from Day 8 after adjuvant): 9.3
joint scores (paw swelling and redness, maximal score per day 12) ([1]; Day 10, 0.3 mg/kg orally each day from Day 8 after adjuvant): 7.3
joint scores (paw swelling and redness, maximal score per day 12) ([1]; Day 10, 1 mg/kg orally each day from Day 8 after adjuvant): 7
joint scores (paw swelling and redness, maximal score per day 12) ([1]; Day 11, 0.1 mg/kg orally each day from Day 8 after adjuvant): 9.7
joint scores (paw swelling and redness, maximal score per day 12) ([1]; Day 11, 0.3 mg/kg orally each day from Day 8 after adjuvant): 7
joint scores (paw swelling and redness, maximal score per day 12) ([1]; Day 11, 1 mg/kg orally each day from Day 8 after adjuvant): 6
joint scores (paw swelling and redness, maximal score per day 12) ([1]; Day 12, 0.1 mg/kg orally each day from Day 8 after adjuvant): 10
joint scores (paw swelling and redness, maximal score per day 12) ([1]; Day 12, 0.3 mg/kg orally each day from Day 8 after adjuvant): 6.7
joint scores (paw swelling and redness, maximal score per day 12) ([1]; Day 12, 1 mg/kg orally each day from Day 8 after adjuvant): 5
joint scores (paw swelling and redness, maximal score per day 12) ([1]; Day 13, 0.1 mg/kg orally each day from Day 8 after adjuvant): 4.2
joint scores (paw swelling and redness, maximal score per day 12) ([1]; Day 13, 0.3 mg/kg orally each day from Day 8 after adjuvant): 3.7
joint scores (paw swelling and redness, maximal score per day 12) ([1]; Day 13, 1 mg/kg orally each day from Day 8 after adjuvant): 1.7
joint scores (paw swelling and redness, maximal score per day 12) ([1]; Day 14, 0.1 mg/kg orally each day from Day 8 after adjuvant): 3.5
joint scores (paw swelling and redness, maximal score per day 12) ([1]; Day 14, 0.3 mg/kg orally each day from Day 8 after adjuvant): 3
joint scores (paw swelling and redness, maximal score per day 12) ([1]; Day 14, 1 mg/kg orally each day from Day 8 after adjuvant): 1.3
joint scores (paw swelling and redness, maximal score per day 12) ([1]; Day 15, 0.1 mg/kg orally each day from Day 8 after adjuvant): 3.5
joint scores (paw swelling and redness, maximal score per day 12) ([1]; Day 15, 0.3 mg/kg orally each day from Day 8 after adjuvant): 3.7
joint scores (paw swelling and redness, maximal score per day 12) ([1]; Day 15, 1 mg/kg orally each day from Day 8 after adjuvant): 1.3
joint scores (paw swelling and redness, maximal score per day 12) ([1]; Day 16, 0.1 mg/kg orally each day from Day 8 after adjuvant): 3.3
joint scores (paw swelling and redness, maximal score per day 12) ([1]; Day 16, 0.3 mg/kg orally each day from Day 8 after adjuvant): 2.3
joint scores (paw swelling and redness, maximal score per day 12) ([1]; Day 16, 1 mg/kg orally each day from Day 8 after adjuvant): 1.2
joint scores (paw swelling and redness, maximal score per day 12) ([1]; Day 17, 0.1 mg/kg orally each day from Day 8 after adjuvant): 3.3
joint scores (paw swelling and redness, maximal score per day 12) ([1]; Day 17, 0.3 mg/kg orally each day from Day 8 after adjuvant): 2.3
joint scores (paw swelling and redness, maximal score per day 12) ([1]; Day 17, 1 mg/kg orally each day from Day 8 after adjuvant): 1.2
joint scores (paw swelling and redness, maximal score per day 12) ([1]; Day 18, 0.1 mg/kg orally each day from Day 8 after adjuvant): 3.3
joint scores (paw swelling and redness, maximal score per day 12) ([1]; Day 18, 0.3 mg/kg orally each day from Day 8 after adjuvant): 2.3
joint scores (paw swelling and redness, maximal score per day 12) ([1]; Day 18, 1 mg/kg orally each day from Day 8 after adjuvant): 1.2
joint scores (paw swelling and redness, maximal score per day 12) ([1]; Day 19, 0.1 mg/kg orally each day from Day 8 after adjuvant): 3
joint scores (paw swelling and redness, maximal score per day 12) ([1]; Day 19, 0.3 mg/kg orally each day from Day 8 after adjuvant): 2
joint scores (paw swelling and redness, maximal score per day 12) ([1]; Day 19, 1 mg/kg orally each day from Day 8 after adjuvant): 1.2
joint scores (paw swelling and redness, maximal score per day 12) ([1]; Day 20, 0.1 mg/kg orally each day from Day 8 after adjuvant): 2.8
joint scores (paw swelling and redness, maximal score per day 12) ([1]; Day 20, 0.3 mg/kg orally each day from Day 8 after adjuvant): 2
joint scores (paw swelling and redness, maximal score per day 12) ([1]; Day 20, 1 mg/kg orally each day from Day 8 after adjuvant): 1.2
joint scores (paw swelling and redness, maximal score per day 12) ([1]; Day 21, 0.1 mg/kg orally each day from Day 8 after adjuvant): 2.5
joint scores (paw swelling and redness, maximal score per day 12) ([1]; Day 21, 0.3 mg/kg orally each day from Day 8 after adjuvant): 1.7
joint scores (paw swelling and redness, maximal score per day 12) ([1]; Day 21, 1 mg/kg orally each day from Day 8 after adjuvant): 1.2
joint scores (paw swelling and redness, maximal score per day 12) ([1]; Day 22, 0.1 mg/kg orally each day from Day 8 after adjuvant): 2.5
joint scores (paw swelling and redness, maximal score per day 12) ([1]; Day 22, 0.3 mg/kg orally each day from Day 8 after adjuvant): 1.7
joint scores (paw swelling and redness, maximal score per day 12) ([1]; Day 22, 1 mg/kg orally each day from Day 8 after adjuvant): 1.2
joint scores (paw swelling and redness, maximal score per day 12) ([1]; Day 23, 0.1 mg/kg orally each day from Day 8 after adjuvant): 1.2
joint scores (paw swelling and redness, maximal score per day 12) ([1]; Day 23, 0.3 mg/kg orally each day from Day 8 after adjuvant): 1
joint scores (paw swelling and redness, maximal score per day 12) ([1]; Day 23, 1 mg/kg orally each day from Day 8 after adjuvant): 1
joint scores (paw swelling and redness, maximal score per day 12) ([1]; Day 24, 0.1 mg/kg orally each day from Day 8 after adjuvant): 1.3
joint scores (paw swelling and redness, maximal score per day 12) ([1]; Day 24, 0.3 mg/kg orally each day from Day 8 after adjuvant): 1.3
joint scores (paw swelling and redness, maximal score per day 12) ([1]; Day 24, 1 mg/kg orally each day from Day 8 after adjuvant): 0.8
Tidemark Integrity (0-1) [2, 3]: 0
Cartilage Cells (0-3) [2, 3]: 1.92 ± 0.21
Cartilage Structure (0-6) [2, 3]: 2.33 ± 0.68
Fibroplasia (0-3) [2, 3]: 1.75 ± 0.42
Inflammatory Cells (0-3) [2, 3]: 1.83 ± 0.52
Pannus (0-2) [2, 3]: 1.50 ± 0.84
Saffranin-O/Fast Green Staining (0-4) [2, 3]: 2.42 ± 0.67
Synovial Structure (0-3) [2, 3]: 2.33 ± 0.75
Total Mankin Score (0-14) [2, 3]: 6.83 ± 1.25
Total Synovitis Score (0-10) [2, 3]: 7.42 ± 2.25
Tidemark Integrity (0-1) [2, 4]: 0
Cartilage Cells (0-3) [2, 4]: 1.50 ± 0.32
Cartilage Structure (0-6) [2, 4]: 1.75 ± 0.42
Fibroplasia (0-3) [2, 4]: 1.67 ± 0.26*t
Inflammatory Cells (0-3) [2, 4]: 1.25 ± 0.27
Pannus (0-2) [2, 4]: 0.50 ± 0.84
Saffranin-O/Fast Green Staining (0-4) [2, 4]: 2.17 ± 0.26
Synovial Structure (0-3) [2, 4]: 1.58 ± 0.38
Total Mankin Score (0-14) [2, 4]: 5.42 ± 0.74*t
Total Synovitis Score (0-10) [2, 4]: 5.00 ± 1.30*#t
Tidemark Integrity (0-1) [2, 5]: 0
Cartilage Cells (0-3) [2, 5]: 1.17 ± 0.26*t
Cartilage Structure (0-6) [2, 5]: 1.25 ± 0.27
Fibroplasia (0-3) [2, 5]: 1.33 ± 0.41*t
Inflammatory Cells (0-3) [2, 5]: 1.17 ± 0.26
Pannus (0-2) [2, 5]: 0.25 ± 0.42
Saffranin-O/Fast Green Staining (0-4) [2, 5]: 2.17 ± 0.26
Synovial Structure (0-3) [2, 5]: 1.42 ± 0.38
Total Mankin Score (0-14) [2, 5]: 4.58 ± 0.74*t
Total Synovitis Score (0-10) [2, 5]: 4.17 ± 1.21*#t
overall synovitis and cartilage scores ([2]; all concentrations tested (down to 0.1 mg/kg), oral): significantly improved
inhibition of paw edema (increase in hind paw volume) (BALB/c mice): > 30%
melting point: 188 °C
